Laboratory results: patent publication US12152016B2, “Aryl hydrocarbon receptor modulators and uses thereof” (Beth Israel Deaconess Medical Center, Inc., priority 2018, dated 2024)

What was measured:
[1] = tested on: AHR-dependent transcription of the CYP1A1 gene; test: CYP1A1 induction in human U937 cells; type: cell-based; settings: Human U937, 1 μM
Experimental: (§1) Mouse macrophages were also used to test AHR-dependent transcription of the CYP1A1 gene in vivo. Finally, the activity of exemplary compounds of Formula (I) described herein was tested in the human […] cell line U937. The U937 cell line is derived from a patient with diffuse histiocytic lymphoma. Tables 2-4 summarize structure-activity relationship data collected for exemplary, non-limiting compounds of Formula (I) described herein.

[2] = tested on: AHR-dependent transcription of the CYP1A1 gene; test: CYP1A1 induction in mouse macrophages; type: cell-based
Experimental: as §1

[3] = biological target: T1, aryl hydrocarbon receptor (AHR) (Homo sapiens, UniProt P35869); test: XRE-driven luciferase reporter assay, human HepG2; settings: for XRE luciferase Emax (fold): fold over vehicle; for XRE luciferase Emax (footnote c): Emax defined as fold increase at highest concentration tested (10 μM); for fold less active / fold decrease in activity: AHR activity relative to compound #10
T1 sequence (P35869 11-848): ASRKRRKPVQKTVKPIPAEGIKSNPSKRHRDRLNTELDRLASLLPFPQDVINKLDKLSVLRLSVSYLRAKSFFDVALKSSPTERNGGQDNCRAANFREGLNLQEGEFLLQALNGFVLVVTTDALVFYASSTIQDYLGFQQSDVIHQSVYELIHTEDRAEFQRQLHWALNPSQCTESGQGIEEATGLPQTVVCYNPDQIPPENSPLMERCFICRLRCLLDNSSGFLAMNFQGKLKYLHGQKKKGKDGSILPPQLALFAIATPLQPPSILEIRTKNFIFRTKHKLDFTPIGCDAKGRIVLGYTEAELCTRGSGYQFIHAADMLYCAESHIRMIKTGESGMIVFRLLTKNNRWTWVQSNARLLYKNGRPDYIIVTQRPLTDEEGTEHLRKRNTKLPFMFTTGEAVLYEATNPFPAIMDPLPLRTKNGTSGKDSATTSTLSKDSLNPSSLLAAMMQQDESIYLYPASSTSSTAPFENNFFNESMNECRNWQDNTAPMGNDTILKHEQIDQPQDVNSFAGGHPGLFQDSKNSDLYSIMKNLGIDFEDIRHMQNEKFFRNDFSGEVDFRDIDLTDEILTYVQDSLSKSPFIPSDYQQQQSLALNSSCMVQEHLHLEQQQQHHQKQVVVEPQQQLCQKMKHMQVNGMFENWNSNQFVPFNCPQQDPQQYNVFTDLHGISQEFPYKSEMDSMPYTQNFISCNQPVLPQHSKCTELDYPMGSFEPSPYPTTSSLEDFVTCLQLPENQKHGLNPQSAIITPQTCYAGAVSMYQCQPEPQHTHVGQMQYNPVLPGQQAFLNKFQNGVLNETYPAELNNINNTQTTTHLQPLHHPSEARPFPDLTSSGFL
Experimental: The Human HepG2 cell line is a human liver cancer cell line, and provide a relevant in vitro AHR activity model. These Hep2G cells have been modified to stably express an AHR-responsive (XRE) firefly luciferase reporter gene to give Hep2G-XRE cells. The expression of luciferase should primarily reflect AHR-dependent transcription controlled by XRE.
Transfected cells were treated with AhR agonist (10^−5-10^−12) for 4.5 h in full medium. Cells were lysed and luciferase was activated using the Luciferase Assay System (Promega). Luminescence signals were measured with a FluroStar Omega microplate reader. Luminescence signals of compound treated groups were normalized to vehicle (DMSO) treated control and plotted as concentration dependent fold changes.

[4] = XRE luciferase EC50, Human HepG2, least square curve fitting, >10,000 = does not reach 50% of Emax of ITE at 10 μM (highest concentration tested)
[5] = XRE luciferase EC50 (footnote a), Human HepG2, EC50 defined as concentration induced 50% of Emax of ITE

| Compound | CYP1A1 induction (% of ITE ± SEM) ([2]; 50 nM) | CYP1A1 induction (% of ITE ± SEM) ([2]; 5 μM) | XRE luciferase Emax (fold) ([3]; Human HepG2) | EC50 [3, 4] [nM] | further results |
| --- | --- | --- | --- | --- | --- |
| COC(=O)c1ccc(C(=O)c2c[nH]c3ccccc23)s1 [Compound 24] | 99 ± 18 % of ITE | 59 ± 22 % of ITE | – | – | CYP1A1 induction (% of ITE ± SEM) [1]: 244 ± 28 % of ITE; CYP1A1 induction (% of ITE ± SEM) ([2]; 5 nM): 60 ± 13 % of ITE |
| CN(C)C(=O)c1cccc(C(=O)c2c[nH]c3ccccc23)n1 [Compound 4] | – | 2.5 ± 1.4 % of ITE | 23 | > 10000 | – |
| O=C(O)c1cccc(C(=O)c2c[nH]c3ccccc23)n1 [Compound 3] | 27 ± 17 % of ITE | 97 ± 16 % of ITE | 47 | 640 | – |
| COC(=O)c1cccc(C(=O)c2c[nH]c3ccc(Br)cc23)n1 [Compound 20] | 138 ± 8 % of ITE | 144 ± 20 % of ITE | 55 | 6.2 | – |
| COC(=O)c1ccc(C(=O)c2c[nH]c3ccccc23)nc1 [Compound 11, methyl 6-(1H-indole-3-carbonyl)pyridine-3-carboxylate] | 2 ± 1 % of ITE | 26 ± 10 % of ITE | – | > 10000 | XRE luciferase Emax (footnote c) ([3]; Human HepG2): (2.3)^c fold |
| O=C(c1cccc(Cl)n1)c1c[nH]c2ccccc12 [Compound 6] | 86 ± 47 % of ITE | – | – | – | XRE luciferase Emax (footnote c) ([3]; Human HepG2): (109)^c fold; EC50 [3, 5]: 29 nM |
| COc1cccc(C(=O)c2n[nH]c3ccccc23)c1 [reference compound] | 1 ± 0.2 % of ITE | 27 ± 3 % of ITE | – | – | CYP1A1 induction (% of ITE ± SEM) [1]: 194 ± 18 % of ITE; XRE luciferase Emax (footnote c) ([3]; Human HepG2): (87)^c fold; EC50 [3, 5]: 2000 nM |
| COc1cc(C(=O)c2c[nH]c3ccccc23)ccn1 [Compound 29] | – | 44 ± 2 % of ITE | 65 | 2600 | – |
| CCOC(=O)c1cccc(C(=O)c2c[nH]c3ccccc23)n1 [Compound 147, ethyl 6-(1H-indole-3-carbonyl)pyridine-2-carboxylate] | 8 ± 2 % of ITE | 52 ± 28 % of ITE | 40 | 840 | fold less active / fold decrease in activity [3]: > 250 fold |
| COC(=O)c1cccc(C(=O)c2cn(C)c3ccccc23)n1 [Compound 13] | 29 ± 10 % of ITE | 50 ± 20 % of ITE | 55 | 190 | – |
| COc1cccc(C(=O)c2c[nH]c3ccccc23)n1 [Compound 5] | 168 ± 86 % of ITE | 101 ± 33 % of ITE | 48 | 96 | CYP1A1 induction (% of ITE ± SEM) [1]: 165 ± 27 % of ITE; CYP1A1 induction (% of ITE ± SEM) ([2]; 5 nM): 57 ± 22 % of ITE |
| COC(=O)c1ccc(C(=O)c2c[nH]c3ccccc23)cn1 [Compound 23] | – | 65 ± 9 % of ITE | 74 | 4700 | – |
| CC(C)OC(=O)c1cccc(C(=O)c2c[nH]c3ccccc23)n1 [Compound 1] | 22 ± 11 % of ITE | 128 ± 11 % of ITE | 37 | 370 | – |
| COC(=O)c1cccc(C(=O)c2c[nH]c3c(Cl)cccc23)n1 [Compound 17] | 49 ± 19 % of ITE | – | 68 | 1.3 | – |
| COc1ccc(C(=O)c2c[nH]c3ccccc23)cc1 [Compound 28] | 19 ± 8 % of ITE | – | – | – | – |
| COC(=O)c1cccc(C(=O)c2c[nH]c3ccccc23)c1 [Compound 8] | 3 ± 1 % of ITE | – | – | > 10000 | XRE luciferase Emax (footnote c) ([3]; Human HepG2): (2.1)^c fold |
| O=C(c1cccc(N2CCOCC2)n1)c1c[nH]c2ccccc12 [Compound 110, 1H-indol-3-yl-(6-morpholino-2-pyridyl)methanone] | – | 46 ± 4 % of ITE | 59 | 62 | fold less active / fold decrease in activity [3]: ~20 fold |
| COc1cnc(C(=O)c2c[nH]c3ccccc23)cn1 [Compound 30] | – | 41 ± 3 % of ITE | – | – | XRE luciferase Emax (footnote c) ([3]; Human HepG2): (30)^c fold; EC50 [3, 5]: 8.1 nM |

| Compound | CYP1A1 induction (% of ITE ± SEM) ([2]; 50 nM) | CYP1A1 induction (% of ITE ± SEM) ([2]; 5 μM) | XRE luciferase Emax (fold) ([3]; Human HepG2) | EC50 [3, 4] [nM] | further results |
| --- | --- | --- | --- | --- | --- |
| COC(=O)c1cccc(C(=O)c2c[nH]c3ncccc23)n1 [Compound 18] | 11 ± 4 % of ITE | – | 42 | 18 | – |
| COC(=O)c1cccc(C(=O)c2c[nH]c3c2ccc2ccccc23)n1 [Compound 22] | 57 ± 5 % of ITE | 105 ± 3 % of ITE | – | – | XRE luciferase Emax (footnote c) ([3]; Human HepG2): (121)^c fold; EC50 [3, 5]: 14 nM |
| COc1ccccc1C(=O)c1c[nH]c2ccccc12 [Compound 27] | 6 ± 1 % of ITE | – | – | – | – |
| COC(=O)c1ccc(C(=O)c2c[nH]c3ccccc23)cc1 [Compound 25] | 20 ± 16 % of ITE | – | – | – | – |
| O=C(OC1CCCCC1)c1cccc(C(=O)c2c[nH]c3ccccc23)n1 [Compound 2] | 19 ± 4 % of ITE | 95 ± 7 % of ITE | 55 | 12000 | – |
| COC(=O)c1cccc(C(=O)c2c[nH]c3cc(Cl)ccc23)n1 [Compound 16] | 169 ± 59 % of ITE | 122 ± 48 % of ITE | – | – | XRE luciferase Emax (footnote c) ([3]; Human HepG2): (141)^c fold; EC50 [3, 5]: 1.6 nM |
| COC(=O)c1cccc(C(=O)c2c[nH]c3ccc(OC)cc23)n1 [Compound 19] | 121 ± 12 % of ITE | 120 ± 13 % of ITE | 131 | 1800 | – |
| COC(=O)c1cccc(C(=O)c2c[nH]c3ccccc23)c1 [Compound 202, methyl 3-(1H-indole-3-carbonyl)benzoate] | – | – | – | – | CYP1A1 induction (% of ITE ± SEM) [1]: 3 ± 1 % of ITE |
| COC(=O)c1cccc(C(=O)c2c(C)[nH]c3ccccc23)n1 [Compound 144, methyl 6-(2-methyl-1H-indole-3-carbonyl)pyridine-2-carboxylate] | – | 6 ± 2 % of ITE | – | > 10000 | CYP1A1 induction (% of ITE ± SEM) [1]: 29 ± 14 % of ITE; XRE luciferase Emax (footnote c) ([3]; Human HepG2): (22)^c fold |
| COC(=O)c1cccc(C(=O)c2c[nH]c3ccc(Cl)cc23)n1 [Compound 15] | 150 ± 36 % of ITE | 89 ± 44 % of ITE | 62 | 7.6 | – |
| COC(=O)c1ccccc1C(=O)c1c[nH]c2ccccc12 [Compound 26] | 10 ± 7 % of ITE | – | – | – | – |
| O=C(O)c1cccc(C(=O)c2c[nH]c3ccccc23)n1 [Compound 145, 6-(1H-indole-3-carbonyl)pyridine-2-carboxylic acid] | – | – | – | – | IC50 [3]: 640 nM |
| COc1cccc(C(=O)c2c[nH]c3ccccc23)c1 [Compound 9] | 9 ± 5 % of ITE | – | – | > 10000 | CYP1A1 induction (% of ITE ± SEM) [1]: 101 ± 12 % of ITE; XRE luciferase Emax (footnote c) ([3]; Human HepG2): (25)^c fold |
| O=C(c1ccccn1)c1c[nH]c2ccccc12 [Compound 124, 1H-indol-3-yl(2-pyridyl)methanone] | – | 15 ± 6 % of ITE | 20 | > 10000 | – |
| COC(=O)c1cccc(C(=O)c2c[nH]c3cccc(Cl)c23)n1 [Compound 14] | 141 ± 83 % of ITE | – | – | > 10000 | XRE luciferase Emax (footnote c) ([3]; Human HepG2): (19)^c fold |
| CC(=O)Oc1cccc(C(=O)c2c[nH]c3ccccc23)c1 [Compound 12] | 5 ± 3 % of ITE | – | – | – | – |
| COC(=O)c1cccc(C(=O)c2c[nH]c3c4c(ccc23)CCC4)n1 [Compound 21] | 129 ± 8 % of ITE | 118 ± 5 % of ITE | 53 | 27 | – |
| O=C(c1ccccc1)c1c[nH]c2ccccc12 [Compound 7] | – | 0.6 ± 0.2 % of ITE | – | – | – |
